Laboratory results from PubChem BioAssay AID252 (DTP/NCI, 2004).
“And” between values parts separate entries of the source, which are not always exact repeats. Identical values can stand only once. Toxic doses and inconclusive results are not listed.

Tested on: BDF1 mice, intracerebral L1210 leukemia, survival T/C
Experiment: NCI In Vivo Anticancer Drug Screen. Data for tumor model L1210 Leukemia (intracerebral) in B6D2F1 (BDF1) mice
Settings: endpoint: mean survival time, higher = longer survival
Summary of the method: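 Mice carrying transplanted tumour were dosed with compound; survival was recorded and expressed as treated-group value (T) divided by vehicle-control value (C).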

[1] = dose: 6.25 mg/kg/injection, schedule: Q01DX009 (ip), vehicle: saline
[2] = dose: 6.25 mg/kg/injection, schedule: Q01DX009 (sc), vehicle: saline
[3] = dose: 12.5 mg/kg/injection, schedule: Q01DX009 (sc), vehicle: saline

In the case of O=NN(CCF)C(=O)NC1CCC(NC(=O)N(CCF)N=O)CC1 (centres undefined), the T/C (dose: 10.0 mg/kg/injection, schedule: Q01DX001 (ip), vehicle: other) is reported as 110 % of control, the T/C (dose: 25.0 mg/kg/injection, schedule: Q01DX001 (ip), vehicle: other) is reported as 120 % of control and the T/C (dose: 30.0 mg/kg/injection, schedule: Q01DX001 (ip), vehicle: other) is reported as 155 % of control. The T/C (dose: 40.0 mg/kg/injection, schedule: Q01DX001 (ip), vehicle: other) was 193 % of control, the T/C (dose: 50.0 mg/kg/injection, schedule: Q01DX001 (ip), vehicle: other) was 224 % of control and the T/C (dose: 60.0 mg/kg/injection, schedule: Q01DX001 (ip), vehicle: other) was 202 % of control. The T/C (dose: 80.0 mg/kg/injection, schedule: Q01DX001 (ip), vehicle: other) was 293 % of control and 329 % of control, the T/C (dose: 110.0 mg/kg/injection, schedule: Q01DX001 (ip), vehicle: other) was 294 % of control and the T/C (dose: 120.0 mg/kg/injection, schedule: Q01DX001 (ip), vehicle: other) was 319 % of control and 334 % of control. For the same compound, the T/C (dose: 180.0 mg/kg/injection, schedule: Q01DX001 (ip), vehicle: other) was 277 % of control, the T/C (dose: 187.0 mg/kg/injection, schedule: Q01DX001 (ip), vehicle: other) was 170 % of control and the T/C (dose: 240.0 mg/kg/injection, schedule: Q01DX001 (ip), vehicle: other) was 262 % of control.

In the case of CN=NNc1nc[nH]c1C(N)=O, the T/C (dose: 12.5 mg/kg/injection, schedule: Q01DX Z (ip), vehicle: carboxymethylcellulose (CMC)) is reported as 102 % of control, the T/C (dose: 25.0 mg/kg/injection, schedule: Q01DX Z (ip), vehicle: carboxymethylcellulose (CMC)) is reported as 114 % of control and the T/C (dose: 50.0 mg/kg/injection, schedule: Q01DX Z (ip), vehicle: carboxymethylcellulose (CMC)) is reported as 111 % of control. The T/C (dose: 100.0 mg/kg/injection, schedule: Q01DX Z (ip), vehicle: carboxymethylcellulose (CMC)) was 87 % of control.

In the case of O=NN(CCCl)C(=O)NC1CCCCCCCCCCC1, the T/C (dose: 298.0 mg/kg/injection, schedule: Q01DX001 (ip), vehicle: other) is reported as 103 % of control, the T/C (dose: 550.0 mg/kg/injection, schedule: Q01DX001 (ip), vehicle: other) is reported as 124 % of control and the T/C (dose: 596.0 mg/kg/injection, schedule: Q01DX001 (ip), vehicle: other) is reported as 108 % of control. For the same compound, the T/C (dose: 1250.0 mg/kg/injection, schedule: Q01DX001 (ip), vehicle: other) was 159 % of control and 160 % of control, the T/C (dose: 1875.0 mg/kg/injection, schedule: Q01DX001 (ip), vehicle: other) was 123 % of control and the T/C (dose: 2384.0 mg/kg/injection, schedule: Q01DX001 (ip), vehicle: other) was 110 % of control.

CC(=O)Nc1ccc2c(Nc3ccc(NS(C)(=O)=O)cc3)c3ccccc3nc2c1 was tested, and the T/C (dose: 1.5 mg/kg/injection, schedule: Q01DX009 (ip), vehicle: saline) was 89 % of control, the T/C (dose: 1.5 mg/kg/injection, schedule: Q01DX009 (sc), vehicle: saline) was 98 % of control and the T/C (dose: 3.0 mg/kg/injection, schedule: Q01DX009 (ip), vehicle: saline) was 98 % of control. The T/C (dose: 3.0 mg/kg/injection, schedule: Q01DX009 (sc), vehicle: saline) was 105 % of control, the T/C [1] was 86 % of control and the T/C [2] was 109 % of control. The T/C [3] was 98 % of control.

Cc1ccc(S(=O)(=O)NC(=O)N(CCCl)N=O)cc1 was tested, and the T/C (dose: 31.0 mg/kg/injection, schedule: Q01DX001 (ip), vehicle: other) was 119 % of control, the T/C (dose: 62.0 mg/kg/injection, schedule: Q01DX001 (ip), vehicle: other) was 116 % of control and the T/C (dose: 140.0 mg/kg/injection, schedule: Q01DX001 (ip), vehicle: other) was 115 % of control.

For O=NN(CCF)C(=O)NCCCl, the T/C (dose: 9.0 mg/kg/injection, schedule: Q01DX001 (ip), vehicle: Klucel (hydroxypropylcellulose) (HPC)) was 156 % of control and 203 % of control, the T/C (dose: 14.0 mg/kg/injection, schedule: Q01DX001 (ip), vehicle: Klucel (hydroxypropylcellulose) (HPC)) was 233 % of control and 338 % of control and the T/C (dose: 21.0 mg/kg/injection, schedule: Q01DX001 (ip), vehicle: Klucel (hydroxypropylcellulose) (HPC)) was 456 % of control and 513 % of control. The T/C (dose: 32.0 mg/kg/injection, schedule: Q01DX001 (ip), vehicle: Klucel (hydroxypropylcellulose) (HPC)) was 622 % of control and 710 % of control, the T/C (dose: 48.0 mg/kg/injection, schedule: Q01DX001 (ip), vehicle: Klucel (hydroxypropylcellulose) (HPC)) was 727 % of control and the T/C (dose: 71.0 mg/kg/injection, schedule: Q01DX001 (ip), vehicle: Klucel (hydroxypropylcellulose) (HPC)) was 228 % of control.

With CCCCC(=O)N(c1ccc(Nc2c3ccccc3nc3cc([N+](=O)[O-])ccc23)cc1)S(C)(=O)=O the T/C (dose: 3.18 mg/kg/injection, schedule: Q01DX009 (ip), vehicle: saline) was 96 % of control, the T/C (dose: 3.18 mg/kg/injection, schedule: Q01DX009 (sc), vehicle: saline) was 104 % of control and the T/C [1] was 99 % of control. For the same compound, the T/C [2] was 105 % of control, the T/C (dose: 12.5 mg/kg/injection, schedule: Q01DX009 (ip), vehicle: saline) was 101 % of control and the T/C [3] was 103 % of control. For the same compound, the T/C (dose: 25.0 mg/kg/injection, schedule: Q01DX009 (ip), vehicle: saline) was 97 % of control and the T/C (dose: 25.0 mg/kg/injection, schedule: Q01DX009 (sc), vehicle: saline) was 102 % of control.

C[n+]1c2ccccc2c(Nc2ccc(NS(=O)(=O)CCCCN=C(N)N)cc2)c2ccc(N)cc21 was tested, and the T/C (dose: 1.5 mg/kg/injection, schedule: Q01DX009 (ip), vehicle: water) was 103 % of control, the T/C (dose: 3.0 mg/kg/injection, schedule: Q01DX009 (ip), vehicle: water) was 121 % of control and the T/C (dose: 6.0 mg/kg/injection, schedule: Q01DX009 (ip), vehicle: water) was 117 % of control. The T/C (dose: 12.0 mg/kg/injection, schedule: Q01DX009 (ip), vehicle: water) was 101 % of control.

CCCCCCCCSc1ncnc2c1ncn2CCCC was tested, and the T/C (dose: 125.0 mg/kg/injection, schedule: Q01DX001 (ip), vehicle: saline) was 106 % of control, the T/C (dose: 250.0 mg/kg/injection, schedule: Q01DX001 (ip), vehicle: saline) was 112 % of control and the T/C (dose: 500.0 mg/kg/injection, schedule: Q01DX001 (ip), vehicle: saline) was 106 % of control. For the same compound, the T/C (dose: 1000.0 mg/kg/injection, schedule: Q01DX001 (ip), vehicle: saline) was 101 % of control.

For c1nc(SSc2ncnc3nc[nH]c23)c2[nH]cnc2n1, the T/C (dose: 75.0 mg/kg/injection, schedule: Q04DX003 (ip), vehicle: Klucel (hydroxypropylcellulose) (HPC)) was 108 % of control.

For O=NN(CCCl)C(=O)NC1CCC(=O)NC1=O (centres undefined), the T/C (dose: 2.1 mg/kg/injection, schedule: Q01DX001 (ip), vehicle: other) was 106 % of control and 116 % of control, the T/C (dose: 4.0 mg/kg/injection, schedule: Q01DX001 (ip), vehicle: other) was 156 % of control and 226 % of control and the T/C (dose: 8.0 mg/kg/injection, schedule: Q01DX001 (ip), vehicle: other) was 159 % of control and 161 % of control and 183 % of control. The T/C (dose: 8.0 mg/kg/injection, schedule: Q01DX001 (ip), vehicle: saline with Tween-80) was 352 % of control, the T/C (dose: 11.0 mg/kg/injection, schedule: Q01DX001 (ip), vehicle: other) was 251 % of control and the T/C (dose: 12.0 mg/kg/injection, schedule: Q01DX001 (ip), vehicle: other) was 298 % of control and 327 % of control. For the same compound, the T/C (dose: 13.0 mg/kg/injection, schedule: Q01DX001 (ip), vehicle: saline with Tween-80) was 542 % of control, the T/C (dose: 16.0 mg/kg/injection, schedule: Q01DX001 (ip), vehicle: other) was 274 % of control and 328 % of control and the T/C (dose: 17.0 mg/kg/injection, schedule: Q01DX001 (ip), vehicle: other) was 389 % of control and 498 % of control. The T/C (dose: 20.0 mg/kg/injection, schedule: Q01DX001 (ip), vehicle: saline with Tween-80) was 625 % of control, the T/C (dose: 22.0 mg/kg/injection, schedule: Q01DX001 (ip), vehicle: other) was 251 % of control and the T/C (dose: 24.0 mg/kg/injection, schedule: Q01DX001 (ip), vehicle: other) was 238 % of control and 335 % of control. For the same compound, the T/C (dose: 30.0 mg/kg/injection, schedule: Q01DX001 (ip), vehicle: saline with Tween-80) was 107 % of control, the T/C (dose: 33.0 mg/kg/injection, schedule: Q01DX001 (ip), vehicle: other) was 297 % of control and the T/C (dose: 35.0 mg/kg/injection, schedule: Q01DX001 (ip), vehicle: other) was 287 % of control and 353 % of control. The T/C (dose: 36.0 mg/kg/injection, schedule: Q01DX001 (ip), vehicle: other) was 205 % of control and the T/C (dose: 44.0 mg/kg/injection, schedule: Q01DX001 (ip), vehicle: other) was 275 % of control.

C[C@@H]1CN1C1=CC(=O)C(N2C[C@H]2C)=CC1=O was tested, and the T/C (dose: 8.0 mg/kg/injection, schedule: Q01DX009 (ip), vehicle: Klucel (hydroxypropylcellulose) (HPC)) was 95 % of control.

With CN(N=O)C(=O)NCCCCCNC(=O)N(C)N=O the T/C (dose: 210.0 mg/kg/injection, schedule: Q01DX001 (ip), vehicle: carboxymethylcellulose (CMC)) was 113 % of control and the T/C (dose: 420.0 mg/kg/injection, schedule: Q01DX001 (ip), vehicle: carboxymethylcellulose (CMC)) was 123 % of control.

With O=NN(CCCl)C(=O)Nc1ccc(F)cc1 the T/C (dose: 11.0 mg/kg/injection, schedule: Q01DX001 (ip), vehicle: carboxymethylcellulose (CMC)) was 109 % of control, the T/C (dose: 16.6 mg/kg/injection, schedule: Q01DX001 (ip), vehicle: carboxymethylcellulose (CMC)) was 112 % of control and the T/C (dose: 25.0 mg/kg/injection, schedule: Q01DX001 (ip), vehicle: carboxymethylcellulose (CMC)) was 109 % of control. The T/C (dose: 37.5 mg/kg/injection, schedule: Q01DX001 (ip), vehicle: carboxymethylcellulose (CMC)) was 108 % of control.
